Results as given in patent US11000033B2, “Ketone or oxime compound, and herbicide” (NISSAN CHEMICAL CORPORATION, priority 2014, dated 2021).

Legend:
Format in all cases: in vivo
[1] = tested on: Lolium multiflorum Lam.; assay: Test Example 5: herbicidal effect by foliage application, plastic box (symbol K); conditions: 320 g/ha, 3 weeks after application
Outline: (§1)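 After sowing into sterilized diluvial soil and growing two weeks under glass at 25° C. to 30° C., seedlings receive a uniform foliar spray of diluted emulsion. Damage is judged visually three weeks on.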

[2] = tested on: Alopecurus myosuroides; assay: Test Example 5: herbicidal effect by foliage application, plastic box (symbol J); conditions: 320 g/ha, 3 weeks after application
Outline: as §1

[3] = tested on: Apera spica-venti; assay: Test Example 5: herbicidal effect by foliage application, plastic box (symbol L); conditions: 320 g/ha, 3 weeks after application
Outline: as §1

[4] = tested on: corn; assay: Test Example 5: effect on crop by foliage application, plastic box (symbol c); conditions: 320 g/ha, 3 weeks after application
Outline: (§2)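 Box culture: sterile diluvial soil, seeds spot-sown, ~1.5 cm cover, raised under glass at 25–30° C.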

[5] = tested on: soybean; assay: Test Example 5: effect on crop by foliage application, plastic box (symbol d); conditions: 320 g/ha, 3 weeks after application
Outline: as §2

[6] = tested on: Galium spurium; assay: Test Example 4: herbicidal effect by soil treatment (symbol Q); conditions: application herbicide amount 320 g/ha
Outline: (§3)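 Seeds were sown in sterilized diluvial soil, covered with about 1.5 cm of soil, and the soil surface was sprayed with a water-diluted emulsion of the compound at a predetermined rate. Plants grew in a greenhouse at 25° C. to 30° C.; effects were scored visually 3 weeks after application.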

[7] = tested on: Stellaria media; assay: Test Example 4: herbicidal effect by soil treatment (symbol P); conditions: application herbicide amount 320 g/ha
Outline: as §3

[8] = tested on: Chenopodium album; assay: Test Example 4: herbicidal effect by soil treatment (symbol O); conditions: application herbicide amount 320 g/ha
Outline: as §3

[9] = tested on: Alopecurus myosuroides; assay: Test Example 4: herbicidal effect by soil treatment (symbol J); conditions: application herbicide amount 320 g/ha
Outline: as §3

[10] = tested on: Veronica persica; assay: Test Example 5: herbicidal effect by foliage application, plastic box (symbol R); conditions: 320 g/ha, 3 weeks after application
Outline: as §1

[11] = tested on: Echinochloa crus-galli var. crus-galli; assay: Test Example 5: herbicidal effect by foliage application, plastic box (symbol H); conditions: 320 g/ha, 3 weeks after application
Outline: as §1

[12] = tested on: transplanted rice plant; assay: Test Example 1: effect on crop, application before weed generation in submerged conditions (symbol a); conditions: application herbicide amount 320 g/ha
Outline: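 Alluvial soil pots flooded to 4 cm water, sown with Echinochloa oryzacola, Scirpus juncoides and Monochoria vaginalis, then transplanted with 2.5 leaf stage rice seedlings; pre-emergence application. Greenhouse 25° C. to 30° C.; scored 0–5 by herbicidal ratio 3 weeks after application.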

[13] = tested on: Amaranthus retroflexus; assay: Test Example 5: herbicidal effect by foliage application, plastic box (symbol N); conditions: 320 g/ha, 3 weeks after application
Outline: as §1

[14] = tested on: Chenopodium album; assay: Test Example 5: herbicidal effect by foliage application, plastic box (symbol O); conditions: 320 g/ha, 3 weeks after application
Outline: as §1

[15] = tested on: corn; assay: Test Example 4: effect on crop by soil treatment (symbol c); conditions: application herbicide amount 320 g/ha
Outline: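 Steps: fill box with sterilized diluvial soil; sow seed spot-like; cover with ~1.5 cm soil; grow in greenhouse (25° C. to 30° C.).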

[16] = tested on: Echinochloa crus-galli var. crus-galli; assay: Test Example 3: herbicidal effect by foliage application, Wagner pot (symbol H); conditions: application herbicide amount 320 g/ha
Outline: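 Post-emergence, paddy-type test: seedlings 14 d old in shallow-flooded (0.1–0.5 cm) alluvial soil, 25–30 °C greenhouse. Emulsion diluted to target rate, sprayed on leaves. Read-out: visual effect on each species at 3 weeks, per set criteria.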

[17] = tested on: Abutilon theophrasti; assay: Test Example 4: herbicidal effect by soil treatment (symbol M); conditions: application herbicide amount 320 g/ha
Outline: as §3

## CON=C(C)CC1CC(O)=C(c2c(C)cc(-c3ccccn3)cc2C)C1=O (mixture of isomers) [6-051]
[1]
  K: Lolium multiflorum Lam., herbicidal effect grade: 5 (Herbicidal ratio of 90% or more (almost completely withered))
[2]
  J: Alopecurus myosuroides, herbicidal effect grade: 5 (Herbicidal ratio of 90% or more (almost completely withered))
[3]
  L: Apera spica-venti, herbicidal effect grade: 5 (Herbicidal ratio of 90% or more (almost completely withered))
[4]
  c: corn, effect on crop grade: 5 (Herbicidal ratio of 90% or more (almost completely withered))
[5]
  d: soybean, effect on crop grade: 1 (Herbicidal ratio of 5% or higher and lower than 20%)
[6]
  Q: Galium spurium, herbicidal effect grade: 0 (Herbicidal ratio of 5% or lower (almost no effect))
[7]
  P: Stellaria media, herbicidal effect grade: 2 (Herbicidal ratio of 20% or higher and lower than 40%)
[8]
  O: Chenopodium album, herbicidal effect grade: 0 (Herbicidal ratio of 5% or lower (almost no effect))
[9]
  J: Alopecurus myosuroides, herbicidal effect grade: 5 (Herbicidal ratio of 90% or more (almost completely withered))
[10]
  R: Veronica persica, herbicidal effect grade: 4 (Herbicidal ratio of 70% or higher and lower than 90%)
[11]
  H: Echinochloa crus-galli var. crus-galli, herbicidal effect grade: 5 (Herbicidal ratio of 90% or more (almost completely withered))
[12]
  Effect grade on crop, a: transplanted rice plant: 5 (Herbicidal ratio of 90% or more (almost completely withered))
[13]
  N: Amaranthus retroflexus, herbicidal effect grade: 3 (Herbicidal ratio of 40% or higher and lower than 70%)
[14]
  O: Chenopodium album, herbicidal effect grade: 5 (Herbicidal ratio of 90% or more (almost completely withered))
[15]
  c: corn, effect on crop grade: 1 (Herbicidal ratio of 5% or higher and lower than 20%)
[16]
  herbicidal effect on H (Echinochloa crus-galli var. crus-galli), grade 0-5: 5 (Herbicidal ratio of 90% or more (almost completely withered))
[17]
  M: Abutilon theophrasti, herbicidal effect grade: 1 (Herbicidal ratio of 5% or higher and lower than 20%)

## CON=C(C)CC1CC(O)=C(c2c(C)cc(-c3ncccn3)cc2C)C1=O (mixture of isomers) [6-057]
[1]
  K: Lolium multiflorum Lam., herbicidal effect (criteria of Test Example 1): 5 (Herbicidal ratio of 90% or more (almost completely withered))
[2]
  J: Alopecurus myosuroides, herbicidal effect (criteria of Test Example 1): 5 (Herbicidal ratio of 90% or more (almost completely withered))
[3]
  L: Apera spica-venti, herbicidal effect (criteria of Test Example 1): 5 (Herbicidal ratio of 90% or more (almost completely withered))
[4]
  c: corn, effect on crop (criteria of Test Example 1): 5 (Herbicidal ratio of 90% or more (almost completely withered))
[5]
  d: soybean, effect on crop (criteria of Test Example 1): 3 (Herbicidal ratio of 40% or higher and lower than 70%)
[6]
  Q: Galium spurium, herbicidal effect grade: 0 (Herbicidal ratio of 5% or lower (almost no effect))
[7]
  P: Stellaria media, herbicidal effect grade: 0 (Herbicidal ratio of 5% or lower (almost no effect))
[8]
  O: Chenopodium album, herbicidal effect grade: 0 (Herbicidal ratio of 5% or lower (almost no effect))
[9]
  J: Alopecurus myosuroides, herbicidal effect grade: 3 (Herbicidal ratio of 40% or higher and lower than 70%)
[10]
  R: Veronica persica, herbicidal effect (criteria of Test Example 1): 4 (Herbicidal ratio of 70% or higher and lower than 90%)
[11]
  H: Echinochloa crus-galli var. crus-galli, herbicidal effect (criteria of Test Example 1): 5 (Herbicidal ratio of 90% or more (almost completely withered))
[12]
  Effect grade on crop, a: transplanted rice plant: 5 (Herbicidal ratio of 90% or more (almost completely withered))
[13]
  N: Amaranthus retroflexus, herbicidal effect (criteria of Test Example 1): 1 (Herbicidal ratio of 5% or higher and lower than 20%)
[14]
  O: Chenopodium album, herbicidal effect (criteria of Test Example 1): 4 (Herbicidal ratio of 70% or higher and lower than 90%)
[15]
  c: corn, effect on crop grade: 1 (Herbicidal ratio of 5% or higher and lower than 20%)
[16]
  herbicidal effect on H (Echinochloa crus-galli var. crus-galli), grade 0-5: 5 (Herbicidal ratio of 90% or more (almost completely withered))
[17]
  M: Abutilon theophrasti, herbicidal effect grade: 0 (Herbicidal ratio of 5% or lower (almost no effect))
